Results from patent US20110110916A1, “METHODS FOR TREATING AND/OR PREVENTING CARDIOMYOPATHIES BY ERK OR JNK INHIBITION” (priority 2008, published 2011).

Experiments:
Type in all cases: in vivo, mouse
[1] = system: Lmna^H222P/H222P mice; assay: Deaths during the 4-week treatment protocol; conditions: 4-week treatment from 16 weeks; PD98059 n=22, SP600125 n=29; DMSO 6 of n=28
Text: We assigned male Lmna^H222P/H222P mice 16 weeks of age to 3 different treatment arms (placebo DMSO, n=28; MEK1/2 inhibitor PD98059, n=22; JNK inhibitor SP600125, n=29) and examined parameters of cardiac structure and function at 20 weeks of age, after 4 weeks treatment. […] Lmna^H222P/H222P mice also have depressed cardiac contractility, with fractional shortening (FS) decreased by 20%-40% compared to Lmna^+/+ mice (13,15). Myocardial fibrosis occurs in Lmna^H222P/H222P mice at 16 weeks of age (16). At 20 weeks, LVEDD and LVESD increase further in Lmna^H222P/H222P mice and cardiac contractility also progressively deteriorates (16). During the 4-week treatment protocol, 6 mice in the DMSO group, 3 in the PD98059 group and 3 in the SP600125 group died prior to reaching 20 weeks of age for evaluation.

[2] = system: ERK1/2; assay: Immunoblot of phosphorylated ERK1/2 versus total ERK1/2 in hearts of treated mice
Experimental: Hearts were excised from mice at 16-weeks of age and were homogenized in RIPA extraction buffer (Cell Signalling) containing protease inhibitors (25 […]). Protein samples were subjected to SDS-PAGE, transferred to nitrocellulose membranes and blotted with primary antibodies against ERK1/2 (Santa-Cruz), phosphorylated ERK1/2 (Cell Signaling), JNK (Santa-Cruz), natriuretic peptide precursor A (Santa-Cruz), phosphorylated JNK (Cell Signaling), and Gapdh (Ambion). Secondary antibodies were HRP-conjugated (Amersham). Recognized proteins were visualized by enhanced chemiluminescence (ECL, Amersham). The signal generated using an antibody against Gapdh was used as internal controls to normalize the amounts of protein between immunoblots.
We assessed the efficacy of the chemical entities in inhibiting their targets in the heart by immunoblot using anti-total ERK1/2 (Santa Cruz) and anti-pERK1/2 (Cell Signaling) antibodies.
Proteins were loaded on 10% SDS gels and electrotransferred on a […] pore size nitrocellulose membrane (Invitrogen). We used antibodies directed against phosphorylated ERK1/2 (Cell Signaling, 1:1,000), total ERK1/2 (Santa Cruz, 1:2,000), phosphorylated JNK (Cell Signaling, 1:1,000) and total JNK (Santa Cruz, 1:200). The secondary antibodies were coupled to horseradish-peroxydase (Amersham). Recognized proteins were visualized by enhanced chemiluminescence (SuperSignal® West Pico chemiluminescent substrate, Thermo Scientific).

[3] = system: hearts from Lmna^H222P/H222P mice; assay: Quantification of myocardial fibrotic area (Gomori's trichrome); conditions: 20 weeks of age; 3 mg/kg/day from 16 to 20 weeks; DMSO 15.01±0.9%
Text: Later-stage cardiomyopathy caused by LMNA mutations is characterized by myocardial fibrosis. […] We quantified the myocardial fibrotic area of each animal by determining the ratio of fibrotic tissue (blue stained with Gomori's trichrome) to the total tissue area in each micrograph (FIG. 8B). Hearts from DMSO-treated Lmna^H222P/H222P mice had 20.93%±2.45% fibrotic tissue per total surface examined (FIG. 8B).
Mice were sacrificed at 20 weeks of age, and freshly removed hearts were fixed in 4% formaldehyde for 48 hours, embedded in paraffin, sectioned at 5 μm and stained with hematoxylin, eosin and Gomori's trichrome and Syrius Red. Representative stained sections were photographed using a Microphot SA (Nikon) light microscope attached to a Spot RT Slide camera (Diagnostic Instruments) with a 10× objective. Images were processed using Adobe Photoshop CS (Adobe Systems).
Later-stage cardiomyopathy caused by LMNA mutations is characterized by myocardial fibrosis (21,22). […] We quantified the myocardial fibrotic area of each animal by determining the ratio of fibrotic tissue (blue stained with Gomori's trichrome) to the total tissue area in each micrograph (FIG. 34C). Hearts from DMSO-treated Lmna^H222P/H222P mice had 15.01±0.9% fibrotic tissue per total surface examined (FIG. 34D).

[4] = 3 mg/kg/day from 16 to 20 weeks of age
[5] = treated 8 to 16 weeks of age, 3 mg/kg/day i.p.

O=C1c2ccccc2-c2n[nH]c3cccc1c23 [SP600125, anthra[1,9-cd]pyrazol-6(2H)-one]
mice that died prior to reaching 20 weeks of age [1]: 3
phosphorylation of ERK1/2 in hearts [2, 4]: not significantly inhibited
phosphorylation of ERK1/2 in hearts [2, 5]: did not block
area of fibrotic tissue per total surface examined [3]: 5.86%±0.4%

COc1cccc(-c2cc(=O)c3ccccc3o2)c1N [PD98059, 2-(2-amino-3-methoxyphenyl)-4H-1-benzopyran-4-one]
mice that died prior to reaching 20 weeks of age [1]: 3
phosphorylation of ERK1/2 in hearts [2, 4]: partially blocked
phosphorylation of ERK1/2 in hearts ([2]; pilot study, 24 week-old mice treated from 19 weeks): partially blocked
phosphorylation of ERK1/2 in hearts [2, 5]: inhibited
area of fibrotic tissue per total surface examined [3]: 4.48%±1%
